Source: patent US20030054332A1, “Markers for evaluating estrogenic activity” (priority 2001, published 2003)

Experiments:
[1] = test system: VEGF mRNA in VE-ERα cells; test: VEGF mRNA expression in VE-ERα cells by RNAse protection analysis; type: cell-based, human; settings: VE-ERα cells treated with estrogen; RNAse protection analysis (FIG. 1, 100 nM)
Experimental: Estrogen receptor α (ERα)-enhanced vascular endothelial cells were prepared by infecting primary vascular endothelial cells with a retrovirus expressing human papillomavirus E6/E7, which leads to cellular immortalization. The retrovirus expression vector LXSN16E6E7 contains the immortalizing oncogenes E6 and E7 from human papilloma virus type 16 and a neomycin resistance gene. (Halbert, C. L., Demers, F. W., and Galloway, D. A. 1991. J Virol. 65: 473-478 (1)). This vector was transfected into PA317 cells, an amphotrophic packaging cell line, by calcium phosphate precipitation. Stably clonal lines were established by G418 selection. A negative control line expressing the empty retrovirus LXSN was established. Viruses produced by the clonal lines of PA317 were used to infect second passage primary human aortic endothelial cells obtained from Cell Applications, Inc., San Diego, Calif. Following infection and selection with G418, the LXSN infected cells ceased growth after approximately 7 passages where the LXSN16E6E7 infected cells were growth extended beyond 20 passages.
The cells expressed the expected endothelial markers. The levels of ERα were increased by infection of the cells with a retrovirus that expresses recombinant ERα (Green, S. et al, Nature 1986 320: 134-137). […]

VE-ERα cells = test: Incyte UniGEM estrogen regulated gene profile of VE-ERα cells; type: cell-based, human; settings: VE-ERα cells treated for 6 hours vs ethanol
Experimental: The Incyte UniGEM technology was used to survey a large panel of genes and to establish the estrogen regulated gene profile of the VE-ERα cells. VE-ERα cells were treated for 6 hours with 17-β estradiol or vehicle control (ethanol). Poly (A) RNA was isolated and this RNA was used to synthesize Cy3 or Cy5 labeled cDNA for simultaneous probing of Incyte UniGem V. Reciprocal labeling was done and two UniGems were probed (for one GEM the estradiol probe was labeled with Cy3 and ethanol probe with Cy5 and this labeling was reversed for the second GEM). UniGem V contains approximately 8500 human sequences including both known genes and ESTs. More than 20 genes were identified which were regulated more than 2 fold on both UniGEMs (Table I, indicated as UniGem. The sequence indicated in Table I with RF were identified by RNA fingerprinting, a more stringent version of differential display. RNA fingerprinting is based upon the use of arbitrary primers and primer combinations to carry out PCR amplifications from cDNA populations derived from cells or tissues of interest. The process generates a series of radioactively-labeled fragments which can be resolved by PAGE and visualized by autoradiography. (Mathieu-Daude, et al. Methods Enzymol 1999;303:309; Stone, et al., Nucleic Acids Res 1994 Jul 11;22(13):2612-8.)

[2] = test system: prostacyclin I2 synthase in VE-ERα cells; test: Estrogen treatment time course, RNase protection analysis of prostacyclin I2 synthase in VE-ERα cells; type: cell-based, human; settings: at 24 hours
Experimental: This step is not necessary with genes identified by the UniGem where an estrogen treatment time course was performed. RNA was isolated and RNase protection analysis was used to determine estrogen responses (FIG. 2). All 20 of the genes examined were confirmed to be regulated to a higher fold modulation at 24 hours than the 6 hours used for the UniGem experiment.
The genes identified were relevant genes for vascular endothelial cells and in some cases consistent with the known effects of estrogen in the cardiovascular system. […] This enzyme is required for that last step in the synthesis of prostacyclin (PGI2). […] Another relevant gene was natriuretic peptide receptor B (NPR-B) which is the receptor for C-type natriuretic peptide (CNP), an endothelium dependent vasodilator.

MCF-7 cells = test: Estrogen regulation of marker genes in MCF-7 cells; type: cell-based
[3] = test system: cyclin A1 in ERα-enhanced vascular endothelial cells; test: Cyclin A1 RNase protection, ERα-enhanced vascular endothelial cells; type: cell-based, human; settings: for cyclin A1 mRNA (in words): ERα-enhanced cells, 100 nM E2, 1 μM ICI 164384, 10 nM DES
Experimental: RNA was prepared using standard methods and RNase protection experiments were performed to evaluate the time course of cyclin A1 induction.
(§1) In a similar experiment, RNase protection assays were performed using estrogen receptor α- and estrogen receptor β-enhanced vascular endothelial cells. […] The results are presented in FIGS. 4A and 5B, which show the levels of various cyclins in estrogen receptor α- and estrogen receptor β-enhanced cells, respectively. Arrows indicate mRNA for each indicated cyclin. […] Cyclin A1 is the only cyclin in the panel increased by estradiol treatment.
(§2) Cyclin A1 expression and the effect of estradiol on expression in a number of immortalized and primary cells lines was further evaluated as described above.

[4] = test system: cyclin A1 in ERβ-enhanced vascular endothelial cells; test: Cyclin A1 RNase protection, ERβ-enhanced vascular endothelial cells; type: cell-based, human; settings: 100 nM E2, 1 μM ICI 164384, 10 nM DES
Experimental: as §1, §2

[5] = test system: cyclin A1 in Vascular endothelial cells; test: Cyclin A1 expression and induction, vascular endothelial cells; type: cell-based; set-up: key: (+) indicates detectable cyclin A1; (−) indicates no detectable cyclin A1 expression; settings: immortalized human cells
Description: as §2

[6] = test system: cyclin A1 in Primary vascular endothelial cells; test: Cyclin A1 expression and induction, primary vascular endothelial cells; type: cell-based; set-up: key: (+) indicates detectable cyclin A1; (−) indicates no detectable cyclin A1 expression
Description: as §2

[7] = test system: cyclin A1 in MCF-7 (mammary cancer cell line); test: Cyclin A1 expression and induction, MCF-7; type: cell-based; set-up: key: (+) indicates detectable cyclin A1; (−) indicates no detectable cyclin A1 expression
Description: as §2

[8] = test system: cyclin A1 in Endometrial epithelial cells; test: Cyclin A1 expression and induction, endometrial epithelial cells; type: cell-based; set-up: key: (+) indicates detectable cyclin A1; (−) indicates no detectable cyclin A1 expression; settings: immortalized human cells
Description: as §2

cyclin A1 in Osteoblasts = test: Cyclin A1 expression and induction, osteoblasts; type: cell-based; set-up: key: (+) indicates detectable cyclin A1; (−) indicates no detectable cyclin A1 expression; settings: immortalized human cells
Description: as §2

[9] = test system: cyclin A1 in Vascular smooth muscle cells; test: Cyclin A1 expression and induction, vascular smooth muscle cells; type: cell-based; set-up: key: (+) indicates detectable cyclin A1; (−) indicates no detectable cyclin A1 expression; settings: immortalized human cells
Description: as §2

[10] = test system: cyclin A1 in Primary vascular smooth muscle cells; test: Cyclin A1 expression and induction, primary vascular smooth muscle cells; type: cell-based; set-up: key: (+) indicates detectable cyclin A1; (−) indicates no detectable cyclin A1 expression
Description: as §2

[11] = test system: estrogen-regulated genes in VE-ERα cells; test: Multigene RNase protection assay (RPA) with VE-ERα cells; type: cell-based, human; settings: for induction of expression of estrogen-regulated genes / effect on basal gene expression: 5 dose 0.1 nM-1000 nM for 24 hours
Description: Another preferred assay is an RNase protection assay (RPA), which can be used to examine a panel of genes identified as estrogen-regulated in VE-ERα cells. The RPA is described in Gilman, 1993, In Current Protocols in Molecular Biology, Vol. 1 (Ausubel, F. M., R. Brent, R, E. Kingston, D. D. Moore, J. G. Seidman, J. A. Smith and K. Stuhl, eds.) pp. 4.7.1-4.7.8, John Wiley and Sons, Inc., New York, incorporated herein by reference in its entirety. Within this assay, which may be performed according to standard protocols, multiple probes can be used in a single reaction that requires as little as 1 μg of total RNA, resulting in high information content and a molecule profile for each compound on ERα. regulated gene expression in vascular endothelial cells. The RPA assay is very sensitive and is therefore able to detect low copy messages and distinguish low fold modulations typical of estrogen. This approach has a number of advantages over a reporter assay. The endogenous genes in the multigene assay will contain all endogenous gene regulatory elements and will not be restricted to activation occurring through an ERE element. Since VE-ERα cells are human cells that have been characterized and determined to maintain endothelial specific phenotypic markers and functions, tissue selective ER regulation can be investigated.
An RNase protection assay (RPA) was used to examine a panel of genes identified as estrogen-regulated in VE-ERα cells.
(§3) In a further experiment, compounds known to have estrogen-like activity based on ER binding and ERE transactivation (ERE luciferase reporter in Chinese hamster ovary cells expressing transfected ERα) were evaluated. […] In order to confirm that these active compounds were working in an ER dependent manner, VE103-ERα cells were treated with a single dose of compound and increasing doses of ICI 164,384. […] All results are presented as percent of estrogen. PGI2 synthase numbers were based on EC50 from a 5-point dose response like that shown for estrogen in FIG. 5.

[12] = test system: ERE luciferase reporter in Chinese hamster ovary cells expressing transfected ERα; test: ERE transactivation (ERE luciferase reporter in Chinese hamster ovary cells expressing transfected ERα); type: cell-based
Experimental: as §3

Compound: C[C@]12CC[C@@H]3c4ccc(O)cc4CC[C@H]3[C@@H]1CC[C@@H]2O [17-β-estradiol]
- expression of vascular endothelial growth factor (VEGF) mRNA [1]: increased three fold
- regulation of more than 20 genes on both UniGEMs (VE-ERα cells): more than 2 fold
- prostacyclin I2 synthase upregulation [2]: 4 fold
- regulation of ATP sulfurylase/APS kinase, podocalyxin (MCF-7 cells): found to be regulated by estrogen
- regulation of clusterin (MCF-7 cells): not regulated by estrogen in a similar fashion
- regulation of prostacyclin I2 synthase and natriuretic peptide receptor B (NPR-B) (MCF-7 cells): not regulated by estrogen
- time to increase of cyclin A1 mRNA ([3]; 100 nM 17-β-estradiol vs 0.1% ethanol): ≤ 3 h
- cyclin A1 mRNA (in words) [3]: induction of cyclin A1 mRNA can occur
- cyclin A1 mRNA (in words) [4]: induction of cyclin A1 mRNA can occur
- Cyclin A1 expression, Estradiol [5]: +
- Cyclin A1 expression, Estradiol [6]: +
- Cyclin A1 expression, Estradiol [7]: −
- Cyclin A1 expression, Estradiol [8]: +
- Cyclin A1 expression, Estradiol (cyclin A1 in Osteoblasts): −
- Cyclin A1 expression, Estradiol [9]: −
- Cyclin A1 expression, Estradiol [10]: −
- induction of expression of estrogen-regulated genes [11]: induced expression
- PG I2 synthase ([11]; VE-ERα Cells, based on EC50 from a 5-point dose response): 100% of estrogen
- ERE transactivation [12]: 100% of estrogen

Compound: CC/C(=C(/CC)c1ccc(O)cc1)c1ccc(O)cc1 [DES, diethylstilbestrol]
- cyclin A1 mRNA (in words) [3]: mimics the estradiol effect
- cyclin A1 mRNA (in words) [4]: mimics the estradiol effect

Compound: CCCCN(C)C(=O)CCCCCCCCCC[C@@H]1Cc2cc(O)ccc2[C@H]2CC[C@]3(C)[C@@H](O)CC[C@H]3[C@H]12 [ICI 164,384]
- cyclin A1 mRNA (in words) [3]: inhibits this response
- cyclin A1 mRNA (in words) [4]: inhibits this response
- effect on basal gene expression [11]: lowered basal expression of some genes at higher concentrations
- induction of expression of estrogen-regulated genes [11]: showed no induction of gene expression
- inhibition of gene activation by active compounds ([11]; VE103-ERα cells, single dose of compound and increasing doses of ICI 164,384): able to inhibit competitively the activation of these genes

Compound: O=C(c1ccc(OCCN2CCCCC2)cc1)c1c(-c2ccc(O)cc2)sc2cc(O)ccc12 [Raloxifene]
- effect on basal gene expression [11]: repressing rather than inducing gene expression
- induction of expression of estrogen-regulated genes [11]: showed no clear induction of any of the genes

Compound: CC/C(=C(\c1ccccc1)c1ccc(OCCN(C)C)cc1)c1ccccc1 [tamoxifen]
- induction of expression of estrogen-regulated genes [11]: showed no clear induction of any of the genes
